Measurements as given in ChEMBL document CHEMBL4152230, “Discovery of N-{3-[(ethanimidoylamino)methyl]benzyl}-l-prolinamide dihydrochloride: A new potent and selective inhibitor of the inducible nitric oxide synthase as a promising agent for the therapy of malignant glioma” (Eur J Med Chem, 2018).
One block for each compound: values may come before it.

Key:
[1] = Selectivity index, ratio of IC50 for recombinant bovine eNOS to IC50 for recombinant mouse iNOS
[2] = molecular target: T1, Nitric oxide synthase, inducible (Mus musculus, UniProt P29477); assay: Inhibition of recombinant mouse iNOS using [3H]L-arginine as substrate preincubated for 15 mins followed by NADPH addition measured after 20 mins in presence of FMN/FAD by liquid scintillation counting method
T1 sequence (P29477 whole entry): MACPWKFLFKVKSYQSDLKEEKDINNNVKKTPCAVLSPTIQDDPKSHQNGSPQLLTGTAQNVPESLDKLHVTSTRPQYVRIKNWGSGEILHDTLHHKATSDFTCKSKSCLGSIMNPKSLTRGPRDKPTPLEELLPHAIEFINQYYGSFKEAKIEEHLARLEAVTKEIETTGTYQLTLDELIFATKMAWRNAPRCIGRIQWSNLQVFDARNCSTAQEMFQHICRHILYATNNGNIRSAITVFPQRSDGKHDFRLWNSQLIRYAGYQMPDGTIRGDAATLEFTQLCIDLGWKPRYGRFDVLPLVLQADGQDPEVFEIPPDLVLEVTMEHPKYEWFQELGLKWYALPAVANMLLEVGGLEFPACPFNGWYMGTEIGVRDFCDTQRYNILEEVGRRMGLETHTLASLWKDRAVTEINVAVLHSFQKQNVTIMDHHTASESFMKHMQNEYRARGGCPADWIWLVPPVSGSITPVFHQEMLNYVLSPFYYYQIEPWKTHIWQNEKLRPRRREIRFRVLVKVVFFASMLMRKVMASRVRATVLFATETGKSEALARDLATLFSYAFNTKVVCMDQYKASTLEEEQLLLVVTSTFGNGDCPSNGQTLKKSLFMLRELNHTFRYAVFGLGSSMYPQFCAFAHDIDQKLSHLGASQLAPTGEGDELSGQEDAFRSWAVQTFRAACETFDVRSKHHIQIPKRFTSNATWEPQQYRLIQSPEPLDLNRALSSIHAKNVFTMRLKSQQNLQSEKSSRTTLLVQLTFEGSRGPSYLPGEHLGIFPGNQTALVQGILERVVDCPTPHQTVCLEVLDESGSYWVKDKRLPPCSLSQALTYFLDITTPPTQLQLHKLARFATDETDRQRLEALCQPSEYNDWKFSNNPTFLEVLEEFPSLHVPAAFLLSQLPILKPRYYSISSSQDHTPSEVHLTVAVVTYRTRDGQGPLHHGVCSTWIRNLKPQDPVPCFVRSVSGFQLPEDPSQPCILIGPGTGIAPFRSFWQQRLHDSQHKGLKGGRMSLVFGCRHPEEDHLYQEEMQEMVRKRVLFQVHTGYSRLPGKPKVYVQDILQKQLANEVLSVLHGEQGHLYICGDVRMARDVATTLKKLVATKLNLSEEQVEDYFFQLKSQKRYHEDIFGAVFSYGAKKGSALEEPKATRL

Nitric oxide synthase 3 = molecular target: T2, Nitric oxide synthase 3 (Bos taurus, UniProt P29473); assay: Inhibition of recombinant bovine eNOS using [3H]L-arginine as substrate preincubated for 15 mins followed by NADPH addition measured after 20 mins in presence of FMN/FAD by liquid scintillation counting method
T2 sequence (P29473 whole entry): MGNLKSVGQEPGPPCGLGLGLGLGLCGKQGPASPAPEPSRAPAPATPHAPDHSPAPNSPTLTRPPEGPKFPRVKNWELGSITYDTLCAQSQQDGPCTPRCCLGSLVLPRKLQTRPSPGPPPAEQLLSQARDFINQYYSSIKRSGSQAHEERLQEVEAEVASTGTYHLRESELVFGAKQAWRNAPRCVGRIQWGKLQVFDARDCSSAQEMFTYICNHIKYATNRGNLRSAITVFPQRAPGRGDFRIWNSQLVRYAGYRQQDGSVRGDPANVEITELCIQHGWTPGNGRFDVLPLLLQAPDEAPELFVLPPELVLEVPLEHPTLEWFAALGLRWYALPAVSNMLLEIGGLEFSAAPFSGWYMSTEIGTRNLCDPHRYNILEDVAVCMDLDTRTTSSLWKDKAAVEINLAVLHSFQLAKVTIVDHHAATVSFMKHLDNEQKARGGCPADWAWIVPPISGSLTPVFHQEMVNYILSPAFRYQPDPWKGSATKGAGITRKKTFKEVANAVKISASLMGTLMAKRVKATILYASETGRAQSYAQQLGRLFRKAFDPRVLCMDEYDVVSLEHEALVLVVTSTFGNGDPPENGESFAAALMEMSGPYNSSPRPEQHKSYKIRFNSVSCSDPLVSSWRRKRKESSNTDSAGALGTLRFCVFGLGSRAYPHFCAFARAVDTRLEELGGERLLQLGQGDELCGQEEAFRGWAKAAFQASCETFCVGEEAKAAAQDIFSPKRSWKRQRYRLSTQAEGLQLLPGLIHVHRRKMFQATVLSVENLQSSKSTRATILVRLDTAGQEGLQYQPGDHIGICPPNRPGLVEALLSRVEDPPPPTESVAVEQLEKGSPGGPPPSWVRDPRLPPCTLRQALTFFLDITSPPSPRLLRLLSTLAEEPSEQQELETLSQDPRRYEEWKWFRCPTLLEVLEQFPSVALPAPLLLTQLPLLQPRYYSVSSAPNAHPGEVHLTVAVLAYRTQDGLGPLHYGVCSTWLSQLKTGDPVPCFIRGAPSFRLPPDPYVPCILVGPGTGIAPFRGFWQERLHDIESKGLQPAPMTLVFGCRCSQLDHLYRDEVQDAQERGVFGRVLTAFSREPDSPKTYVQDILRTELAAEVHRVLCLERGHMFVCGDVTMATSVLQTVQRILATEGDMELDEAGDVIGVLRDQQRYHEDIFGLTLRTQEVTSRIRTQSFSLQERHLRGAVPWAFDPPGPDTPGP

[3] = Cytotoxicity against rat CTX/TNA2 cells assessed as inhibition of cell proliferation at 2 mM after 24 hrs by MTT assay relative to control; type: cell-based
C6 [4] = assay: Cytotoxicity against rat C6 cells assessed as cell proliferation at 1.5 mM after 24 hrs by MTT assay relative to control; type: functional; conditions: C6, 24 h, read-out: Activity
C6 [5] = assay: Cytotoxicity against rat C6 cells assessed as cell proliferation at 0.75 mM after 72 hrs by MTT assay relative to control; type: functional; conditions: C6, 72 h, read-out: Activity
[6] = Cytotoxicity against rat CTX/TNA2 cells assessed as inhibition of cell proliferation at 1.5 mM after 24 hrs by MTT assay relative to control; type: cell-based
[7] = Cytotoxicity against rat CTX/TNA2 cells assessed as inhibition of cell proliferation up to 72 hrs by MTT assay; type: cell-based
C6 [8] = assay: Cytotoxicity against rat C6 cells assessed as cell proliferation at 0.5 mM after 48 hrs by MTT assay relative to control; type: functional; conditions: C6, 48 h, read-out: Activity
C6 [9] = assay: Cytotoxicity against rat C6 cells assessed as cell proliferation at 2 mM after 24 hrs by MTT assay relative to control; type: functional; conditions: C6, 24 h, read-out: Activity
C6 [10] = assay: Cytotoxicity against rat C6 cells assessed as cell proliferation up to 2 mM after 48 hrs by MTT assay relative to control; type: functional
C6 [11] = assay: Cytotoxicity against rat C6 cells assessed as inhibition of cell proliferation after 24 to 48 hrs by MTT assay; type: functional, cell-based
C6 [12] = assay: Cytotoxicity against rat C6 cells assessed as cell proliferation at 1 mM after 24 hrs by MTT assay relative to control; type: functional; conditions: C6, 24 h, read-out: Activity

Ratio IC50 [1]: 8 | IC50 [2]: 1.23 µM | IC50 (Nitric oxide synthase 3): 10 µM
Structure (SMILES): CC(=N)NCc1cccc(CNC(=O)[C@@H](N)CCC(=O)O)c1

Ratio IC50 [1]: 473 | IC50 [2]: 0.446 µM | IC50 (Nitric oxide synthase 3): 211 µM
Structure (SMILES): CC(=N)NCc1cccc(CNC(=O)[C@@H](N)CCCCN)c1

IC50 [2]: > 10 µM
Structure (SMILES): CC(=N)NCc1cccc(CNC(=O)[C@@H](N)[C@@H](C)O)c1

The next lines start with the compound.

Structure (SMILES): CC(=N)NCc1cccc(CN)c1 [1400W]
inhibition at 24 h, 2000 µM [3]: 69.2% | growth at 1500 µM (C6 [4]): 70.6% | growth at 750 µM (C6 [5]): 64.6% | inhibition at 24 h, 1500 µM [6]: ≤ 67.4% | Activity [7]: Dose-dependent effect | growth at 500 µM (C6 [8]): 68.9% | growth at 2000 µM (C6 [9]): 55.2% | Activity (C6 [10]): 35.66% | inhibition (C6 [11]): Dose-dependent effect | growth at 1000 µM (C6 [12]): 83.2%

Structure (SMILES): CC(=N)NCc1cccc(CNC(=O)[C@@H](N)Cc2c[nH]c3ccccc23)c1
IC50 [2]: > 10 µM
